Data set [1] is described as follows: Pharmacokinetic study in rats of (S)-M1 and Compound 435(S) after oral dosing (Example 37). Format: in vivo, male Sprague-Dawley rats. As for the experimental part:
(§1) (S)-M1 and Compound 435(S) (a deuterated form of (S)-M1) were separately dissolved in saline at a concentration of 10 mg/mL. A 1:1 mixture of the two compounds was then prepared containing a final concentration of 5 mg/mL of each compound, which was used for intravenous administration. For oral administration the mixture was further diluted in saline to a final concentration of 1 mg/mL for each compound.
(§2) Three male Sprague-Dawley rats were used in each of the oral and intravenous studies. Animals were fasted overnight prior to administration of compounds. Intravenous administration was achieved by bolus injection of a single 5 mg/kg dose of the 1:1 combination into the cannulated jugular vein of the rats. Cannulation was achieved the day prior to dosing on rats that had been placed under anesthesia using ketamine (IM 30 mg/kg). Oral administration was achieved by oral gavage of a single 5 mg/kg dose. Blood samples (250 μL) were collected from the dosed rats at various times post-dosing (2 min, 5 min, 10 min, 20 min, 30 min, 1 hr, 2 hr, 3 hr, 4 hr, 5 hr, 6 hr) by retro-orbital sampling of the rats temporarily anesthetized with isoflurane. Blood samples were placed in tubes containing K2-EDTA and stored on ice until centrifuged. Within 30 minutes of collection, plasma was isolated by centrifugation. A 100-μL aliquot was removed, mixed with 200 μL of acetonitrile and stored at −20° C. until further analysis by LC-MS/MS using an Applied Bio-systems API 4000 mass spectrometer.
(§3) Samples were analyzed for the presence of the administered compound, the corresponding ketone (pentoxifylline and Compound 409) and the corresponding M5 metabolite. Samples (10 μL) were injected into a Zorbax SB-C8 (Rapid Resolution) column (2.1×30 mm, 3.5 μm). The initial mobile phase condition was 100% A (10 mM ammonium acetate in water) and 0% B (methanol) with a flow rate at 0.5 mL/min. Mobile phase B was allowed to reach 55% in 3 minutes and from 55% to 90% in 1 minute before ramping back to 0% in another minute. The overall run time was 5 minutes. For pentoxifylline and its M1 and M5 metabolites, the precursor/product ion pairs were set at m/z 281/193 (M1), m/z 279/181 (pentoxifylline), and m/z 267/221 (M5).
(§4) For Compound 435(S) and Compound 409 more than one ion pair was set up for to detect species that arose from loss of deuterium. […] This loss of deuterium appears to occur both in vivo and ex vivo by an unknown mechanism. The addition of acetonitrile to serum samples was used to stop any additional ex vivo deuterium loss prior to analysis. Typically, no more than 2 deuterium atoms were replaced by hydrogen. For Compound 435(S), there is a deuterium at the methinyl position which was lost upon oxidation to the keto-compound 409. Reduction of 409 to an M1 metabolite introduced a proton at the methinyl position. When serum from animals dosed with 435(S) were analyzed to quantitate administered compound and metabolites, compound species were included with one and two less side chain deuteriums in the total amounts (referred to hereinafter as the “−1D” and the “−2D” species). Thus, for Compound 435(S) and Compound 409 separate ion pairs were set up to detect the compound and its corresponding −1D and −2D species. For Compound 435(S) three ion pairs were detected: m/z 291/197, 290/197, and […]. For Compound 409 ion pairs of m/z 288/186, 287/186 and 286/186 were monitored. Inclusion of −1D and −2D species in the measurements of Compound 409 and Compound 435(S) more accurately quantitates the total active species and is reasonable based on what is known about the metabolism and activities of pentoxifylline and its M-1 metabolites. Increased plasma exposure to Compound 409 or any M-1 metabolites of 409 would be desirable. This includes the −1D and −2D species.
(§5) [drawing 78] which has no deuterium on its acid side chain, only one ion pair was used at m/z 271/225. The internal standard for the analysis was indiplon.

Data set [2] is described as follows: Pharmacokinetic study in rats of (S)-M1 and Compound 435(S) after intravenous dosing (Example 37). In kind it is in vivo, male Sprague-Dawley rats. The note with it: for AUC(0-inf): male, Sprague-Dawley, rat. On the procedure:
as §1, §2, §3, §4, §5

Data set [3] can be described thus: Pharmacokinetic study of pentoxifylline and Compound 435(S) in chimps after oral dosing (Example 38). In kind it is in vivo. Particulars: for % Difference in AUC0-∞ Female (deuterated vs nondeuterated species) / % Difference in AUC0-∞ Male (deuterated vs nondeuterated species): oral; for AUC(0-inf): oral gavage 75 mg each of pentoxifylline and 435(S) as 1:1 mixture, species named in label measured in plasma. On the procedure:
Pentoxifylline and Compound 435(S) were separately dissolved in warm (65° C.) saline at a concentration at 10 mg/mL. A 1:1 mixture of the two compounds was then prepared containing a final concentration of 5 mg/mL of each compound and the mixture was then sterile filtered through a 0.2-μm filter.
Two chimps (one male and one female) were used in each of the oral and intravenous studies. Animals were fasted overnight prior to administration of compounds. All animals were sedated with ketamine (approximately 10 mg/kg) and/or telazol (approximately 5 mg/kg) prior to dosing. Intravenous administration was achieved by IV infusion of 75 mg of each compound (15 mL total dosing solution) over 10 minutes. Oral administration was achieved by oral gavage of a single 75 mg dose of each compound (15 mL total dosing solution). Blood samples (6 mL) were collected from the dosed chimps at various times prior to and after dosing. For intravenous administrations blood samples were collected at 0 min (preinfusion), 5 min, 9.5 min (immediately before the end of the infusion), then 6, 15, 30 and 45 min, and 1, 2, 4, 6, 8, 10 and 12 hr after the infusion is stopped. For oral administrations, blood samples were collected at 0 min (predose), 15 and 30 min, and 1, 1.5, 2, 4, 6, 8, 10 and 12 hr postdose.
Blood samples were placed in tubes containing sodium heparin, mixed and stored on ice until centrifuged. Within 30 minutes of collection, plasma was isolated by centrifuging the blood samples and removing an aliquot (200 μL) of the resulting plasma. Each 200-μL aliquot of plasma was mixed with 400 μL acetonitrile and stored at −70° C. until further analysis by LC-MS/MS using an Applied Bio-systems API 4000 mass spectrometer.
The analysis of all samples by LC-MS/MS was performed as described above for the rat plasma samples in Example 37.

A short description of data set [4]: Pharmacokinetic study of pentoxifylline and Compound 435(S) in chimps after oral dosing (Example 39). Particulars: for % Difference in AUC0-12 Female (deuterated vs nondeuterated species) / % Difference in AUC0-12 Male (deuterated vs nondeuterated species): oral. Format: in vivo. On the procedure: Pentoxifylline and Compound 435(S) were tested according to a protocol similar to the Oral Dosing protocol followed in Example 38, except that (a) the compounds were separately dissolved in water rather than saline; (b) the mixture of the two compounds was not sterile filtered; and (c) oral administration was achieved by oral gavage of a single 65 mg dose of each compound (13 mL total dosing solution).

[5] abbreviates: intravenous bolus single 5 mg/kg dose of 1:1 combination of (S)-M1 and 435(S), species named in label measured in plasma.
The mark [6] stands for this setting: male, Sprague-Dawley, rat, oral gavage single 5 mg/kg dose, 1:1 mixture of (S)-M1 and 435(S), species named in label measured in plasma, −1D and −2D species included.
Where [7] appears, read: female chimp, read-out: AUC0-∞ Female.
Setting [8] is: male chimp, read-out: AUC0-∞ Male.
[9] abbreviates: female chimp, oral gavage 65 mg each of pentoxifylline and 435(S) in water, species named in label measured in plasma, read-out: AUC0-12 Female.
Where [10] appears, read: male chimp, oral gavage 65 mg each of pentoxifylline and 435(S) in water, species named in label measured in plasma, read-out: AUC0-12 Male.

Where two headings read alike, the source gives them in different places.

One may read the Cmax as the highest concentration seen after dosing. Turning to `C[C@H](O)CCCCn1c(=O)c2c(ncn2C)n(C)c1=O` [(S)-M1, reference compound], the “Ratio of active species (M1 alcohol + ketone) to M5 metabolite” value in data set [1] (oral administration, from AUC0-∞) was 1.6. The Cmax in data set [1] (oral gavage single 5 mg/kg dose, 1:1 mixture of (S)-M1 and 435(S), species named in label measured in plasma) stood at 1570 ± 249 ng/mL. The “AUC0-∞” value in data set [1] (oral gavage single 5 mg/kg dose, 1:1 mixture of (S)-M1 and 435(S), species named in label measured in plasma, −1D and −2D species included) was found to be 1628 ± 272 ng·h/mL; in data set [2] (setting [5]), 3390 ± 302 ng·h/mL. Further, in data set [2] (intravenous administration), the “Ratio of active species to the corresponding M5 metabolite” value is recorded as 3.5. In data set [3] (in vivo, po, 75 mg), the “AUC0-∞ Female” value was determined as 301 ng·h/mL. Also, in data set [3] (in vivo, po, 75 mg), the “AUC0-∞ Male” value is 300 ng·h/mL. Moreover, the “AUC0-12 Female” value in data set [4] (female chimp, oral gavage 65 mg each of pentoxifylline and 435(S) in water, species named in label measured in plasma) was found to be 88 ng·h/mL. In data set [4] (male chimp, oral gavage 65 mg each of pentoxifylline and 435(S) in water, species named in label measured in plasma), the “AUC0-12 Male” value was determined as 75 ng·h/mL.

Consider `[2H]c1nc2c(c(=O)n(CCCC([2H])([2H])[C@@]([2H])(O)C([2H])([2H])[2H])c(=O)n2C)n1C([2H])([2H])[2H]` [Compound 435(S), (S)-8-d1-1-(4,4,5,6,6,6-d6-5-Hydroxyhexyl)-3-methyl-7-(methyl-d3)-1H-purine-2,6(3H,7H)-dione], for which, in data set [1] (male, Sprague-Dawley, rat, oral gavage single 5 mg/kg dose, 1:1 mixture of (S)-M1 and 435(S), species named in label measured in plasma, read-out: Cmax), the Cmax came to 4100 ± 964 ng/mL. The AUC(0-inf) in data set [1] (setting [6]) was 4510 ± 1020 ng·h/mL; in data set [2] (setting [5]) it was 7130 ± 816 ng·h/mL; in data set [3] (setting [7]), 672 ng·h/mL; in data set [3] (setting [8]) it was 829 ng·h/mL. Further, in data set [1] (oral), the “% Difference in AUC0-∞ (deuterated vs nondeuterated species)” value is reported as “+177%”. Further, in data set [1] (oral), the “% Difference in Cmax (deuterated vs nondeuterated species)” value was “+162%”. The “% Difference in AUC0-∞ Female (deuterated vs nondeuterated species)” value in data set [3] (female chimp) was “+123%”. For the same compound, the “% Difference in AUC0-∞ Male (deuterated vs nondeuterated species)” value in data set [3] (male chimp) is “+176%”. Further, the “% Difference in AUC0-12 Female (deuterated vs nondeuterated species)” value in data set [4] (female chimp) was “+108%”. The AUC(0-t) in data set [4] (setting [9]) amounted to 183 ng·h/mL; in data set [4] (setting [10]) it was 214 ng·h/mL. Besides, the “% Difference in AUC0-12 Male (deuterated vs nondeuterated species)” value in data set [4] (male chimp) is given as “+185%”.

Turning to `[2H]c1nc2c(c(=O)n(CCCC(=O)O)c(=O)n2C)n1C([2H])([2H])[2H]` [Deuterated M5 (M5a)], the AUC(0-inf) in data set [1] (setting [6]) is 1920 ± 183 ng·h/mL; in data set [2] (setting [5]) it was 1520 ± 530 ng·h/mL; in data set [3] (setting [7]) it was 606 ng·h/mL; in data set [3] (setting [8]) it was 462 ng·h/mL. For the same compound, the “% Difference in AUC0-∞ (deuterated vs nondeuterated species)” value is recorded as −36% in data set [1] (oral) and −15% in data set [2] (intravenous). Besides, the “Amount of M5a metabolite less than amount of M5 metabolite” value in data set [2] (intravenous administration of Compound 435(S) vs (S)-M1) is on record as 15%. In addition, the “% Difference in AUC0-∞ Female (deuterated vs nondeuterated species)” value in data set [3] (female chimp) is reported as −68%. Also, in data set [3] (male chimp), the “% Difference in AUC0-∞ Male (deuterated vs nondeuterated species)” value is on record as −68%. Also, the “% Difference in AUC0-12 Female (deuterated vs nondeuterated species)” value in data set [4] (female chimp) is −25%. Besides, the AUC(0-t) is 609 ng·h/mL in data set [4] (setting [9]) and 667 ng·h/mL in data set [4] (setting [10]). The “% Difference in AUC0-12 Male (deuterated vs nondeuterated species)” value in data set [4] (male chimp) is on record as −18%.
